This note sets out measurements from patent publication US4588720A, “Imidazo[1,2-a]pyrimidines” (Roussel Uclaf, priority 1982, dated 1986).

The IC50 is the concentration needed to halve the response being measured.

Each structure is given as a SMILES string.

For assay [1], the target named is benzodiazepine receptors. Description: Affinity for benzodiazepine receptors ([3H] flunitrazepam radioreceptor binding). The settings on record: inhibition of specific binding of 0.6 nM [^3 H] flunitrazepam, rat forebrain membrane preparations; read-out: Receptor Binding (IC50 nM). The protocol: A. Affinity for benzodiazepine receptors
The affinity of the compounds for benzodiazepine receptors was assessed using the radioligand [^3 H] flunitrazepam and modifications of the original radioreceptor binding method of Squares and Braestrup (Nature, Vol. 266 (1977) p. 732). The values given in Table VI are nanomolar concentrations of test compound which inhibited the specific binding of 0.6 nM[^3 H] flunitrazepam to rat forebrain membrain preparations by 50% (IC50 nM).

Assay [2] can be described thus: Anxiolytic activity, Geller conflict method (Geller and Seifter). The class given is in vivo. The settings on record: po; modified Geller and Seifter conflict method; read-out: Geller Conflict (MED mg/kg po), minimum effective dose at which there was an observed increase in shocks above control. The procedure:
Screening for anxiolytic activity was carried out by modifications of the conflict method of Geller and Seifter (Psychopharmacologia, (1960), Volume I, p. 482). The values given in Table VI are the minimum effective doses at which there was an observed increase in shocks above control (MED me/kg po).

Take `CCCc1c(OC)nc2nc(C(=O)c3ccccc3)cn2c1CCC` [Example 33, [7-Methoxy-5,6-di-n-propylimidazo[1,2-a]pyrimidin-2-yl]phenylmethanone]: the 50% inhibitory concentration (IC50) in assay [1] was found to be 1250 nM. The minimal effective dose in assay [2] was found to be 50 mg/kg.

Consider `CCCCc1c(OC)nc2nc(C(=O)c3ccccc3)cn2c1CCC` [Example 34, [6-n-Butyl-7-methoxy-5-n-propylimidazo[1,2-a]pyrimidin-2-yl]phenylmethanone], for which the IC50 in assay [1] came to 710 nM. In addition, the minimal effective dose in assay [2] came to 50 mg/kg.

Regarding `CCCc1c(OC)nc2nc(C(=O)c3ccccc3)cn2c1CC` [Example 35, [5-Ethyl-7-methoxy-6-n-propylimidazo[1,2-a]pyrimidin-2-yl]phenylmethanone], the IC50 in assay [1] was found to be 34 nM. In addition, the minimal effective dose in assay [2] was found to be 10 mg/kg.

On to `CCCCc1c(OC)nc2nc(C(=O)c3ccccc3)cn2c1CC` [Example 36, [6-n-Butyl-5-ethyl-7-methoxy-imidazo[1,2-a]pyrimidin-2-yl]phenylmethanone], for which the 50% inhibitory concentration (IC50) in assay [1] turned out to be 34 nM. For the same compound, the minimal effective dose in assay [2] was found to be 10 mg/kg.

`C=CCc1c(OC)nc2nc(C(=O)c3ccccc3)cn2c1CCC` [Example 37, [6-Allyl-7-methoxy-5-n-propylimidazo[1,2-a]pyrimidin-2-yl]phenylmethanone]: the half-inhibitory concentration (IC50) in assay [1] amounted to 135 nM. The minimal effective dose in assay [2] stood at 50 mg/kg.

As for `CCc1cn2cc(C(=O)c3ccccc3)nc2nc1OC` [Example 38, [6-Ethyl-7-methoxyimidazo[1,2-a]pyrimidin-2-yl]phenylmethanone], the IC50 in assay [1] stood at 1500 nM. Also, in assay [2], the minimal effective dose is 5 mg/kg.

Regarding `CCCCc1c(C)c(OC)nc2nc(C(=O)c3ccccc3)cn12` [Example 39, [5-n-Butyl-7-methoxy-6-methylimidazo[1,2-a]pyrimidin-2-yl]phenylmethanone], in assay [1], the IC50 amounted to 400 nM. The minimal effective dose in assay [2] came to 50 mg/kg.

Turning to `CCCc1cn2cc(C(=O)c3ccccc3)nc2nc1OC` [Example 40, [7-Methoxy-6-n-propylimidazo[1,2-a]pyrimidin-2-yl]phenylmethanone], the half-maximal inhibitory concentration (IC50) in assay [1] amounted to 1900 nM. Further, the minimal effective dose in assay [2] was determined as 50 mg/kg.

Turning to `CCCCc1cn2cc(C(=O)c3ccccc3)nc2nc1OC` [Example 41, [6-n-Butyl-7-methoxyimidazo[1,2-a]pyrimidin-2-yl]phenylmethanone], the IC50 in assay [1] was 300 nM. Also, the minimal effective dose in assay [2] worked out at 50 mg/kg.

Consider `COc1nc2nc(C(=O)c3ccccc3)cn2cc1C` [Example 42, [7-Methoxy-6-methylimidazo[1,2-a]pyrimidin-2-yl]phenylmethanone], for which the IC50 in assay [1] was determined as 5900 nM. Also, in assay [2], the minimal effective dose was found to be 50 mg/kg.

Regarding `CCCCc1cc(OC)nc2nc(C(=O)c3ccccc3)cn12` [Example 43, [5-n-Butyl-7-methoxyimidazo[1,2-a]pyrimidin-2-yl]phenylmethanone], in assay [1], the half-maximal inhibitory concentration (IC50) is 340 nM. In addition, the minimal effective dose in assay [2] was determined as 10 mg/kg.

Take `C=CCc1c(OC)nc2nc(C(=O)c3ccccc3)cn2c1CC` [Example 44, [6-Allyl-5-ethyl-7-methoxyimidazo[1,2-a]pyrimidin-2-yl]phenylmethanone]: the IC50 in assay [1] is 42 nM. In assay [2], the minimal effective dose came to 10 mg/kg.

With `CCCCc1c(CC)c(OC)nc2nc(C(=O)c3ccccc3)cn12` [Example 45, [5-n-Butyl-6-ethyl-7-methoxyimidazo[1,2-a]pyrimidin-2-yl]phenylmethanone], in assay [1], the concentration for half-maximal inhibition (IC50) is 500 nM. The minimal effective dose in assay [2] worked out at 50 mg/kg.

For the compound `CCCCc1c(CCC)c(OC)nc2nc(C(=O)c3ccccc3)cn12` [Example 46, [5-n-Butyl-7-methoxy-6-n-propylimidazo[1,2-a]pyrimidin-2-yl]phenylmethanone], the concentration for half-maximal inhibition (IC50) in assay [1] stood at 1200 nM. For the same compound, the minimal effective dose in assay [2] turned out to be 20 mg/kg.

Consider `CCCCCc1c(OC)nc2nc(C(=O)c3ccccc3)cn2c1C` [Example 47, [7-Methoxy-5-methyl-6-n-pentylimidazo[1,2-a]pyrimidin-2-yl]phenylmethanone], for which, in assay [1], the IC50 was 107 nM. The minimal effective dose in assay [2] was 20 mg/kg.

As to `COc1nc2nc(C(=O)c3ccccc3)cn2c(C)c1CC(C)C` [Example 48, [6-iso-Butyl-7-methoxy-5-methylimidazo[1,2-a]pyrimidin-2-yl]phenylmethanone], the IC50 in assay [1] stood at 400 nM. Also, the minimal effective dose in assay [2] is 20 mg/kg.

In the case of `CCc1c(SC)nc2nc(C(=O)c3ccccc3)cn2c1C` [Example 49, [6-ethyl-5-methyl-7-(methylthio)imidazo[1,2-a]pyrimidin-2-yl]phenylmethanone], in assay [1], the half-maximal inhibitory concentration (IC50) amounted to 12 nM. Besides, the minimal effective dose in assay [2] came to 2 mg/kg.

Consider `CCc1c(OC)nc2nc(C(=O)c3ccc(OC)cc3)cn2c1C` [Example 54, (6-Ethyl-7-methoxy-5-methylimidazo[1,2-a]pyrimidin-2-yl)(4-methoxyphenyl)methanone], for which the half-maximal inhibitory concentration (IC50) in assay [1] is 59 nM. The minimal effective dose in assay [2] was 10 mg/kg.

In the case of `CCc1c(OC)nc2nc(C(=O)c3ccc(Cl)cc3)cn2c1C` [Example 55, (6-ethyl 7-methoxy 5-methylimidazo/1,2-a/pyrimidin-2-yl)(4-chlorophenyl)methanone], the 50% inhibitory concentration (IC50) in assay [1] was found to be 85 nM. In addition, the minimal effective dose in assay [2] was 50 mg/kg.

As to `CCc1c(OC)nc2nc(C(=O)c3ccc(C)cc3)cn2c1C` [Example 56, (6-ethyl 7-methoxy 5-methylimidazo/1,2-a/pyrimidin-2-yl)(4-methylphenyl)methanone], the 50% inhibitory concentration (IC50) in assay [1] was determined as 68 nM. For the same compound, the minimal effective dose in assay [2] is 50 mg/kg.

Regarding `CCc1c(OC)nc2nc(C(=O)c3ccccc3Cl)cn2c1C` [Example 57, (6-ethyl 7-methoxy 5-methylimidazo/1,2-a/pyrimidin-2-yl)(2-chlorophenyl)methanone], in assay [1], the IC50 came out at 100 nM. The minimal effective dose in assay [2] was 50 mg/kg.

Take `CCc1c(OC)nc2nc(C(=O)c3cccc(OC)c3)cn2c1C` [Example 58, (6-ethyl 7-methoxy 5-methylimidazo/1,2-a/pyrimidin-2-yl)(3-methoxyphenyl)methanone]: the IC50 in assay [1] came out at 500 nM. In assay [2], the minimal effective dose was 50 mg/kg.

For the compound `CCc1c(OC)nc2nc(C(=O)c3ccc(SC)cc3)cn2c1C` [Example 59, (6-ethyl 7-methoxy 5-methylimidazo/1,2-a/pyrimidin-2-yl)(4-methylthiophenyl)methanone], the 50% inhibitory concentration (IC50) in assay [1] was determined as 300 nM. Besides, in assay [2], the minimal effective dose is 50 mg/kg.
